These results are taken from patent US20140343000A1 (priority 2011, published 2014).

Where a name gives a salt, the structure may show the parent alone.

The term EC50 denotes the concentration needed to bring the measured effect to its halfway point.

This assay deals with recombinant NL4-3 virus (Renilla luciferase in nef, Gag P373S; NLRluc) in MT-2 cells. In words: whole plant or invertebrate. It is filed as cell-based, HIV. To be noted: Renilla, NL43, luciferase activity in cells infected for 4-5 days with NLRluc recombinants, serial dilutions of inhibitor; class symbols (key in Table 1); read-out: EC50. The method, boiled down: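 Inhibitor potency against the reporter virus comes from reduced luciferase activity in infected MT-2 cells exposed to a dilution series of compound over 4-5 days.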
With `C=C(C)[C@@H]1CC[C@]2(NCCNc3ccc(S(C)(=O)=O)cn3)CC[C@]3(C)[C@H](CC[C@@H]4[C@@]5(C)CC=C(c6ccc(C(=O)O)cc6)C(C)(C)[C@@H]5CC[C@]43C)[C@@H]12` [Example 201, 4-((1R,3aS,5aR,5bR,7aR,11aS,11bR,13aR,13bR)-5a,5b,8,8,11a-pentamethyl-3a-(2-(5-(methylsulfonyl)pyridin-2-ylamino)ethylamino)-1-(prop-1-en-2-yl)-2,3,3a,4,5,5a,5b,6,7,7a,8,11,11a,11b,12,13,13a,13b-octadecahydro-1H-cyclopenta[a]chrysen-9-yl)benzoic acid], the EC50 was less than 100 nM. Take `C=C(C)[C@@H]1CC[C@]2(N)CC[C@]3(C)[C@H](CC[C@@H]4[C@@]5(C)CC=C(c6ccc(C(=O)O)c(F)c6)C(C)(C)[C@@H]5CC[C@]43C)[C@@H]12` [Example A1, 4-((1R,3aS,5aR,5bR,7aR,11aS,11bR,13aR,13bR)-3a-amino-5a,5b,8,8,11a-pentamethyl-1-(prop-1-en-2-yl)-2,3,3a,4,5,5a,5b,6,7,7a,8,11,11a,11b,12,13,13a,13b-octadecahydro-1H-cyclopenta[a]chrysen-9-yl)-2-fluorobenzoic acid]: the EC50 was less than 100 nM. With `C=C(C)[C@@H]1CC[C@]2(NCCN3CCS(=O)(=O)CC3)CC[C@]3(C)[C@H](CC[C@@H]4[C@@]5(C)CC=C(c6ccc(C(=O)O)c(F)c6)C(C)(C)[C@@H]5CC[C@]43C)[C@@H]12` [Example A2, benzoic acid, 4-[(1R,3aS,5aR,5bR,7aR,11aS,11bR,13aR,13bR)-3a-[[2-(1,1-dioxido-4-thiomorpholinyl)ethyl]amino]-2,3,3a,4,5,5a,5b,6,7,7a,8,11,11a,11b,12,13,13a,13b-octadecahydro-5a,5b,8,8,11a-pentamethyl-1-(1-methylethenyl)-1H-cyclopenta[a]chrysen-9-yl]-2-fluoro-, HCl], the EC50 was less than 100 nM.

For the molecule `C=C(C)[C@@H]1CC[C@]2(NCCN3CCOCC3)CC[C@]3(C)[C@H](CC[C@@H]4[C@@]5(C)CC=C(c6ccc(C(=O)O)c(F)c6)C(C)(C)[C@@H]5CC[C@]43C)[C@@H]12` [Example A3, 2-fluoro-4-((1R,3aS,5aR,5bR,7aR,11aS,11bR,13aR,13bR)-5a,5b,8,8,11a-pentamethyl-3a-(2-morpholinoethylamino)-1-(prop-1-en-2-yl)-2,3,3a,4,5,5a,5b,6,7,7a,8,11,11a,11b,12,13,13a,13b-octadecahydro-1H-cyclopenta[a]chrysen-9-yl)benzoic acid], the EC50 is less than 100 nM. Take `C=C(C)[C@@H]1CC[C@]2(NCCN3CCCC3=O)CC[C@]3(C)[C@H](CC[C@@H]4[C@@]5(C)CC=C(c6ccc(C(=O)O)c(F)c6)C(C)(C)[C@@H]5CC[C@]43C)[C@@H]12` [Example A4, 2-fluoro-4-((1R,3aS,5aR,5bR,7aR,11aS,11bR,13aR,13bR)-5a,5b,8,8,11a-pentamethyl-3a-(2-(2-oxopyrrolidin-1-yl)ethylamino)-1-(prop-1-en-2-yl)-2,3,3a,4,5,5a,5b,6,7,7a,8,11,11a,11b,12,13,13a,13b-octadecahydro-1H-cyclopenta[a]chrysen-9-yl)benzoic acid]: the EC50 is less than 100 nM.

On to `C=C(C)[C@@H]1CC[C@]2(NCCCN3CCCC3=O)CC[C@]3(C)[C@H](CC[C@@H]4[C@@]5(C)CC=C(c6ccc(C(=O)O)c(F)c6)C(C)(C)[C@@H]5CC[C@]43C)[C@@H]12` [Example A5, 2-fluoro-4-((1R,3aS,5aR,5bR,7aR,11aS,11bR,13aR,13bR)-5a,5b,8,8,11a-pentamethyl-3a-(3-(2-oxopyrrolidin-1-yl)propylamino)-1-(prop-1-en-2-yl)-2,3,3a,4,5,5a,5b,6,7,7a,8,11,11a,11b,12,13,13a,13b-octadecahydro-1H-cyclopenta[a]chrysen-9-yl)benzoic acid], for which the EC50 is less than 100 nM. With `C=C(C)[C@@H]1CC[C@]2(NCCCN3CCS(=O)(=O)CC3)CC[C@]3(C)[C@H](CC[C@@H]4[C@@]5(C)CC=C(c6ccc(C(=O)O)c(F)c6)C(C)(C)[C@@H]5CC[C@]43C)[C@@H]12` [Example A6, benzoic acid, 4-[(1R,3aS,5aR,5bR,7aR,11aS,11bR,13aR,13bR)-3a-[[3-(1,1-dioxido-4-thiomorpholinyl)propyl]amino]-2,3,3a,4,5,5a,5b,6,7,7a,8,11,11a,11b,12,13,13a,13b-octadecahydro-5a,5b,8,8,11a-pentamethyl-1-(1-methylethenyl)-1H-cyclopenta[a]chrysen-9-yl]-2-fluoro-] the figure was less than 100 nM; with `C=C(C)[C@@H]1CC[C@]2(NCCN3CCN(S(C)(=O)=O)CC3)CC[C@]3(C)[C@H](CC[C@@H]4[C@@]5(C)CC=C(c6ccc(C(=O)O)c(F)c6)C(C)(C)[C@@H]5CC[C@]43C)[C@@H]12` [Example A8], less than 100 nM.

For `C=C(C)[C@@H]1CC[C@]2(N)CC[C@]3(C)[C@H](CC[C@@H]4[C@@]5(C)CC=C(c6ccc(C(=O)O)s6)C(C)(C)[C@@H]5CC[C@]43C)[C@@H]12` [Example B1, 5-((1R,3aS,5aR,5bR,7aR,11aS,11bR,13aR,13bR)-3a-amino-5a,5b,8,8,11a-pentamethyl-1-(prop-1-en-2-yl)-2,3,3a,4,5,5a,5b,6,7,7a,8,11,11a,11b,12,13,13a,13b-octadecahydro-1H-cyclopenta[a]chrysen-9-yl)thiophene-2-carboxylic acid], the EC50 was less than 100 nM. Turning to `CC(C)[C@@H]1CC[C@]2(NCCN3CCS(=O)(=O)CC3)CC[C@]3(C)[C@H](CC[C@@H]4[C@@]5(C)CC[C@H](c6ccc(C(=O)O)cc6)C(C)(C)[C@@H]5CC[C@]43C)[C@@H]12` [Example B2, 4-((1S,3aS,5aR,5bR,7aS,9S,11aS,11bR,13aR,13bR)-3a-((2-(1,1-dioxidothiomorpholino)ethyl)amino)-1-isopropyl-5a,5b,8,8,11a-pentamethylicosahydro-1H-cyclopenta[a]chrysen-9-yl)benzoic acid], the EC50 was less than 100 nM.

Consider `CC(C)[C@@H]1CC[C@]2(N)CC[C@]3(C)[C@H](CC[C@@H]4[C@@]5(C)CC[C@H](c6ccc(C(=O)O)cc6)C(C)(C)[C@@H]5CC[C@]43C)[C@@H]12` [Example B3, 4-((1S,3aS,5aR,5bR,7aS,9S,11aS,11bR,13aR,13bR)-3a-amino-1-isopropyl-5a,5b,8,8,11a-pentamethylicosahydro-1H-cyclopenta[a]chrysen-9-yl)benzoic acid], for which the EC50 is less than 100 nM.

For the molecule `CC(C)[C@@H]1CC[C@]2(NCCN3CCOCC3)CC[C@]3(C)[C@H](CC[C@@H]4[C@@]5(C)CC[C@H](c6ccc(C(=O)O)cc6)C(C)(C)[C@@H]5CC[C@]43C)[C@@H]12` [Example B4], the EC50 is less than 100 nM. With `CC(C)[C@@H]1CC[C@]2(NCCN(C)C)CC[C@]3(C)[C@H](CC[C@@H]4[C@@]5(C)CC[C@H](c6ccc(C(=O)O)cc6)C(C)(C)[C@@H]5CC[C@]43C)[C@@H]12` [Example B5, 4-((1S,3aS,5aR,5bR,7aS,9S,11aS,11bR,13aR,13bR)-3a-((2-(dimethylamino)ethyl)amino)-1-isopropyl-5a,5b,8,8,11a-pentamethylicosahydro-1H-cyclopenta[a]chrysen-9-yl)benzoic acid] the figure was less than 100 nM.
